Source: US20250339567A1, “COMPOUNDS WITH IMPROVED PHARMACOKINETICS FOR IMAGING AND THERAPY OF CANCER” (priority 2019, published 2025)
Starred links: 1 amine or outer side, 2 acyl side, 3 side chain; linkers in the order of their positions; H or OH if unused. Non-standard residues stand in square brackets, D forms with d. Residues, ends and D or L forms follow the SMILES beside them. *: point of attachment. DOTA = O=C(O)CN1CCN(CC(=O)O)CCN(CC(=O)*)CCN(CC(=O)O)CC1; Sta = CC(C)C[C@H](N)[C@@H](O)CC(=O)O; Bta = N[C@@H](Cc1csc2ccccc12)C(=O)O; Gly(cPent) = N[C@H](C(=O)O)C1CCCC1; Trx = NC[C@H]1CC[C@H](C(=O)O)CC1; X1 = O=C(CN1CCC(N[*:1])CC1)[*:2]; Chg = N[C@H](C(=O)O)C1CCCCC1; hSer = N[C@@H](CCO)C(=O)O; Nle = CCCC[C@H](N)C(=O)O; βAla = NCCC(=O)O; Sar = CNCC(=O)O

Assay: Plasma studies: metabolic stability in vitro in human plasma (radio RP-HPLC)
Format: in vitro ADME
Experimental: Metabolic stability in vitro was determined applying a procedure published by Linder et al. that was slightly modified. Immediately after labeling, human (200 μL) or murine (100 μL) plasma was added and the mixture was incubated at 37° C. for 72±2 h (or 6±0.5 h). Proteins were precipitated by treatment with ice-cold EtOH (150 μL [human], 100 μL [murine]) and ice-cold MeCN (450 μL [human], 300 μL [murine]), followed by centrifugation for 20 min at 13000 rpm. The supernatants were decanted and further analyzed using radio RP-HPLC. […]

| Structure (SMILES) | Amount of intact tracer after incubation in human plasma for 72 ± 2 h (n = 2) |
| --- | --- |
| CC(C)C[C@H](NC(=O)C[C@H](O)[C@H](CC(C)C)NC(=O)[C@H](Cc1c[nH]cn1)NC(=O)CNC(=O)[C@@H](NC(=O)[C@H](C)NC(=O)[C@H](Cc1csc2ccccc12)NC(=O)[C@H](CCC(N)=O)NC(=O)[C@@H](Cc1ccccc1)NC(=O)CN1CCC(NC(=O)CN2CCN(CC(=O)O)CCN(CC(=O)O)CCN(CC(=O)O)CC2)CC1)C1CCCCC1)C(N)=O [DOTA-[Bta^8, Chg^10]MJ9] ({DOTA}-[X1][dF]Q[Bta]A[Chg]GH[Sta]L-NH2) | 2.5 ± 1.0 |
| CC(C)C[C@H](NC(=O)C[C@H](O)[C@H](CC(C)C)NC(=O)[C@H](Cc1c[nH]cn1)NC(=O)CNC(=O)[C@@H](NC(=O)[C@H](C)NC(=O)[C@H](Cc1csc2ccccc12)NC(=O)[C@H](CCC(N)=O)NC(=O)[C@@H](Cc1ccccc1)NC(=O)CN1CCC(NC(=O)CN2CCN(CC(=O)O)CCN(CC(=O)O)CCN(CC(=O)O)CC2)CC1)C1CCCC1)C(N)=O [DOTA-[Bta^8, Cpg^10]MJ9] ({DOTA}-[X1][dF]Q[Bta]A[Gly(cPent)]GH[Sta]L-NH2) | 2.2 ± 0.5 |
| CC(C)C[C@H](NC(=O)C[C@H](O)[C@H](CC(C)C)NC(=O)[C@H](Cc1c[nH]cn1)NC(=O)CN(C)C(=O)[C@@H](NC(=O)[C@H](C)NC(=O)[C@H](Cc1csc2ccccc12)NC(=O)[C@H](CCC(N)=O)NC(=O)[C@@H](Cc1ccccc1)NC(=O)CN1CCC(NC(=O)CN2CCN(CC(=O)O)CCN(CC(=O)O)CCN(CC(=O)O)CC2)CC1)C(C)C)C(N)=O [DOTA-[Bta^8, N—Me-Gly^11]MJ9] ({DOTA}-[X1][dF]Q[Bta]AV[Sar]H[Sta]L-NH2) | 3.0 ± 0.2 |
| CC(C)C[C@H](NC(=O)C[C@H](O)[C@H](CC(C)C)NC(=O)[C@H](Cc1c[nH]cn1)NC(=O)CNC(=O)[C@@H](NC(=O)[C@H](CO)NC(=O)[C@H](Cc1csc2ccccc12)NC(=O)[C@H](CCC(N)=O)NC(=O)[C@@H](Cc1ccccc1)NC(=O)CN1CCC(NC(=O)CN2CCN(CC(=O)O)CCN(CC(=O)O)CCN(CC(=O)O)CC2)CC1)C(C)C)C(N)=O [DOTA-[Bta^8, Ser^9]MJ9] ({DOTA}-[X1][dF]Q[Bta]SVGH[Sta]L-NH2) | 1.5 ± 0.2 |
| CCCC[C@H](NC(=O)[C@H](Cc1ccccc1)NC(=O)[C@H](Cc1c[nH]cn1)NC(=O)CCNC(=O)[C@@H](NC(=O)[C@H](C)NC(=O)[C@H](Cc1csc2ccccc12)NC(=O)[C@H](CCC(N)=O)NC(=O)[C@@H](Cc1ccccc1)NC(=O)CN1CCN(CC(=O)O)CCN(CC(=O)O)CCN(CC(=O)O)CC1)C(C)C)C(N)=O [DOTA-[Bta^8]UL] ({DOTA}-[dF]Q[Bta]AV[βAla]HF[Nle]-NH2) | 0 ± 0 |
| CC(C)C[C@H](NC(=O)C[C@H](O)[C@H](CC(C)C)NC(=O)[C@H](Cc1c[nH]cn1)NC(=O)CNC(=O)[C@@H](NC(=O)[C@H](C)NC(=O)[C@H](Cc1c[nH]c2ccccc12)NC(=O)[C@H](CCC(N)=O)NC(=O)[C@@H](Cc1ccccc1)NC(=O)CN1CCC(NC(=O)CN2CCN(CC(=O)O)CCN(CC(=O)O)CCN(CC(=O)O)CC2)CC1)C1CCCCC1)C(N)=O [DOTA-[Chg^10]MJ9] ({DOTA}-[X1][dF]QWA[Chg]GH[Sta]L-NH2) | 8.4 ± 0.9 |
| CC(C)C[C@H](NC(=O)C[C@H](O)[C@H](CC(C)C)NC(=O)[C@H](Cc1c[nH]cn1)NC(=O)CNC(=O)[C@@H](NC(=O)[C@H](C)NC(=O)[C@H](Cc1c[nH]c2ccccc12)NC(=O)[C@H](CCC(N)=O)NC(=O)[C@@H](Cc1ccccc1)NC(=O)CN1CCC(NC(=O)CN2CCN(CC(=O)O)CCN(CC(=O)O)CCN(CC(=O)O)CC2)CC1)C1CCCC1)C(N)=O [DOTA-[Cpg^10]MJ9] ({DOTA}-[X1][dF]QWA[Gly(cPent)]GH[Sta]L-NH2) | 25.3 ± 1.4 |
| CC(C)C[C@H](NC(=O)C[C@H](O)[C@H](CC(C)C)NC(=O)[C@H](Cc1c[nH]cn1)NC(=O)CNC(=O)[C@@H](NC(=O)[C@H](C)NC(=O)[C@H](Cc1c[nH]c2ccccc12)NC(=O)[C@H](CCO)NC(=O)[C@@H](Cc1ccccc1)NC(=O)CN1CCC(NC(=O)CN2CCN(CC(=O)O)CCN(CC(=O)O)CCN(CC(=O)O)CC2)CC1)C1CCCCC1)C(N)=O [DOTA-[Hse^7, Chg^10]MJ9] ({DOTA}-[X1][dF][hSer]WA[Chg]GH[Sta]L-NH2) | 33.4 ± 1.0 |
| CC(C)C[C@H](NC(=O)C[C@H](O)[C@H](CC(C)C)NC(=O)[C@H](Cc1c[nH]cn1)NC(=O)CNC(=O)[C@@H](NC(=O)[C@H](C)NC(=O)[C@H](Cc1c[nH]c2ccccc12)NC(=O)[C@H](CCO)NC(=O)[C@@H](Cc1ccccc1)NC(=O)CN1CCC(NC(=O)CN2CCN(CC(=O)O)CCN(CC(=O)O)CCN(CC(=O)O)CC2)CC1)C1CCCC1)C(N)=O [DOTA-[Hse^7, Cpg^10]MJ9] ({DOTA}-[X1][dF][hSer]WA[Gly(cPent)]GH[Sta]L-NH2) | 28.1 ± 2.4 |
| CC(C)C[C@H](NC(=O)C[C@H](O)[C@H](CC(C)C)NC(=O)[C@H](Cc1c[nH]cn1)NC(=O)CN(C)C(=O)[C@@H](NC(=O)[C@H](C)NC(=O)[C@H](Cc1c[nH]c2ccccc12)NC(=O)[C@H](CCO)NC(=O)[C@@H](Cc1ccccc1)NC(=O)CN1CCC(NC(=O)CN2CCN(CC(=O)O)CCN(CC(=O)O)CCN(CC(=O)O)CC2)CC1)C(C)C)C(N)=O [DOTA-[Hse^7, N—Me-Gly^11]MJ9] ({DOTA}-[X1][dF][hSer]WAV[Sar]H[Sta]L-NH2) | 13.8 ± 0.7 |
| CC(C)C[C@H](NC(=O)C[C@H](O)[C@H](CC(C)C)NC(=O)[C@H](Cc1c[nH]cn1)NC(=O)CNC(=O)[C@@H](NC(=O)[C@H](CO)NC(=O)[C@H](Cc1c[nH]c2ccccc12)NC(=O)[C@H](CCO)NC(=O)[C@@H](Cc1ccccc1)NC(=O)CN1CCC(NC(=O)CN2CCN(CC(=O)O)CCN(CC(=O)O)CCN(CC(=O)O)CC2)CC1)C(C)C)C(N)=O [DOTA-[Hse^7, Ser^9]MJ9] ({DOTA}-[X1][dF][hSer]WSVGH[Sta]L-NH2) | 14.5 ± 0.8 |
| CCCC[C@H](NC(=O)[C@H](Cc1ccccc1)NC(=O)[C@H](Cc1c[nH]cn1)NC(=O)CCNC(=O)[C@@H](NC(=O)[C@H](C)NC(=O)[C@H](Cc1c[nH]c2ccccc12)NC(=O)[C@H](CCO)NC(=O)[C@@H](Cc1ccccc1)NC(=O)CN1CCN(CC(=O)O)CCN(CC(=O)O)CCN(CC(=O)O)CC1)C(C)C)C(N)=O [DOTA-[Hse^7]UL] ({DOTA}-[dF][hSer]WAV[βAla]HF[Nle]-NH2) | 0.9 ± 0.9 |
| CC(C)C[C@H](NC(=O)C[C@H](O)[C@H](CC(C)C)NC(=O)[C@H](Cc1c[nH]cn1)NC(=O)CN(C)C(=O)[C@@H](NC(=O)[C@H](C)NC(=O)[C@H](Cc1c[nH]c2ccccc12)NC(=O)[C@H](CCC(N)=O)NC(=O)[C@@H](Cc1ccccc1)NC(=O)CN1CCC(NC(=O)CN2CCN(CC(=O)O)CCN(CC(=O)O)CCN(CC(=O)O)CC2)CC1)C(C)C)C(N)=O [DOTA-[N—Me-Gly^11]MJ9] | 6.3 ± 0.6 |
| CC(C)C[C@H](NC(=O)C[C@H](O)[C@H](CC(C)C)NC(=O)[C@H](Cc1c[nH]cn1)NC(=O)CNC(=O)[C@@H](NC(=O)[C@H](CO)NC(=O)[C@H](Cc1c[nH]c2ccccc12)NC(=O)[C@H](CCC(N)=O)NC(=O)[C@@H](Cc1ccccc1)NC(=O)CN1CCC(NC(=O)CN2CCN(CC(=O)O)CCN(CC(=O)O)CCN(CC(=O)O)CC2)CC1)C(C)C)C(N)=O [DOTA-[Ser^9]MJ9] ({DOTA}-[X1][dF]QWSVGH[Sta]L-NH2) | 9.8 ± 4.3 |
| CC(C)C[C@H](NC(=O)C[C@H](O)[C@H](CC(C)C)NC(=O)[C@H](Cc1c[nH]cn1)NC(=O)CNC(=O)[C@@H](NC(=O)[C@H](C)NC(=O)[C@H](Cc1csc2ccccc12)NC(=O)[C@H](CCC(N)=O)NC(=O)[C@@H](Cc1ccccc1)NC(=O)[C@H]1CC[C@H](CNC(=O)CN2CCN(CC(=O)O)CCN(CC(=O)O)CCN(CC(=O)O)CC2)CC1)C(C)C)C(N)=O [DOTA-[Txa^5, Bta^8]MJ9] ({DOTA-Trx}-[dF]Q[Bta]AVGH[Sta]L-NH2) | 27.1 ± 2.1 |
| CC(C)C[C@H](NC(=O)C[C@H](O)[C@H](CC(C)C)NC(=O)[C@H](Cc1c[nH]cn1)NC(=O)CNC(=O)[C@@H](NC(=O)[C@H](C)NC(=O)[C@H](Cc1c[nH]c2ccccc12)NC(=O)[C@H](CCO)NC(=O)[C@@H](Cc1ccccc1)NC(=O)[C@H]1CC[C@H](CNC(=O)CN2CCN(CC(=O)O)CCN(CC(=O)O)CCN(CC(=O)O)CC2)CC1)C(C)C)C(N)=O [DOTA-[Txa^5, Hse^7]MJ9] ({DOTA-Trx}-[dF][hSer]WAVGH[Sta]L-NH2) | 26.7 ± 1.3 |
| CC(C)C[C@H](NC(=O)C[C@H](O)[C@H](CC(C)C)NC(=O)[C@H](Cc1c[nH]cn1)NC(=O)CNC(=O)[C@@H](NC(=O)[C@H](C)NC(=O)[C@](C)(Cc1c[nH]c2ccccc12)NC(=O)[C@H](CCC(N)=O)NC(=O)[C@@H](Cc1ccccc1)NC(=O)[C@H]1CC[C@H](CNC(=O)CN2CCN(CC(=O)O)CCN(CC(=O)O)CCN(CC(=O)O)CC2)CC1)C(C)C)C(N)=O [DOTA-[Txa^5, α-Me-Trp^8]MJ9] | 30.6 ± 0.8 |
| CC(C)C[C@H](NC(=O)C[C@H](O)[C@H](CC(C)C)NC(=O)[C@H](Cc1c[nH]cn1)NC(=O)CNC(=O)[C@@H](NC(=O)[C@H](C)NC(=O)[C@H](Cc1c[nH]c2ccccc12)NC(=O)[C@H](CCC(N)=O)NC(=O)[C@@H](Cc1ccccc1)NC(=O)[C@H]1CC[C@H](CNC(=O)CN2CCN(CC(=O)O)CCN(CC(=O)O)CCN(CC(=O)O)CC2)CC1)C(C)C)C(N)=O [DOTA-[Txa^5]MJ9] | 24.8 ± 0.3 |
| CC(C)C[C@H](NC(=O)C[C@H](O)[C@H](CC(C)C)NC(=O)[C@H](Cc1c[nH]cn1)NC(=O)CNC(=O)[C@@H](NC(=O)[C@H](C)NC(=O)[C@H](Cc1csc2ccccc12)NC(=O)[C@H](CCC(N)=O)NC(=O)[C@@H](CCCNC(=N)N)NC(=O)CN1CCC(NC(=O)CN2CCN(CC(=O)O)CCN(CC(=O)O)CCN(CC(=O)O)CC2)CC1)C(C)C)C(N)=O [DOTA-[arg^6, Bta^8]MJ9] ({DOTA}-[X1][dR]Q[Bta]AVGH[Sta]L-NH2) | 6.6 ± 2.0 |
